The values below come from US9227971B2, “Pyrazolo[1,5-a]pyrimidine compounds as mTOR inhibitors” (Merck Sharp & Dohme Corp., priority 2010, dated 2016).

Where two headings read alike, the source gives them in different places.

The test system of experiment [1] is phosphorylated AKT Ser473 (pAKT S473), mTORC2 activity, PC3 cells. Kind of experiment: mTOR target engagement assay, immunofluorescent cell-based, pAKT S473 readout (mTORC2 activity). Put shortly:
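After blocking, cells were stained overnight at 4 °C with anti-pAKT S473 antibody, then a fluorescent secondary; inhibition was read as reduced fluorescence intensity.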

Experiment [2] deals with phosphorylated 4E-BP1 Thr37/46 (p4E-BP1 Thr37/46), mTORC1 activity, PC3 cells. Kind of experiment: mTOR target engagement assay, immunofluorescent cell-based, p4E-BP1 Thr37/46 readout (mTORC1 activity). To be noted: read-out: p4E-BP1 Thr37/46 IC50. Put shortly:
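Cell-based immunofluorescence in PC3 cells: serially diluted compounds (0.25% DMSO, 5% FBS) applied for ninety minutes at 37° C before fixation and overnight 4° C staining of p4E-BP1 Thr37/46. Untreated DMSO wells set maximal phosphorylation; IC50 obtained by logistic fitting.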

The mark [3] stands for this setting: Homo sapiens, PC-3, PC3 cells, compound treatment ninety minutes at 37° C.
[4] abbreviates: Homo sapiens, PC-3, Table 3-1, PC3 cells.
The mark [5] stands for this setting: Homo sapiens, PC-3, Table 6-1, PC3 cells.

On to `CC(=O)c1c([C@@H]2C[C@H]3CC[C@@H](C2)N3S(=O)(=O)c2nnc[nH]2)nc2c(-c3ccc(-c4ccccc4)nc3)cnn2c1N` [Compound 1.1.42, 1-(5-((1R,3s,5S)-8-(4H-1,2,4-triazol-3-ylsulfonyl)-8-azabicyclo[3.2.1]octan-3-yl)-7-amino-3-(6-phenylpyridin-3-yl)pyrazolo[1,5-a]pyrimidin-6-yl)ethanone], for which the IC50 in experiment [1] (setting [3]) and in experiment [2] (setting [3]) was 100 to 1000 nM each time.
For the compound `Nc1c(C2CC2)c([C@]2(O)C[C@H]3CC[C@@H](C2)N3C(=O)c2nnc[nH]2)nc2c(-c3ccc(-c4ccccc4)nc3)cnn12` [Compound 8.24, ((1R,3r,5S)-3-(7-amino-6-cyclopropyl-3-(6-phenylpyridin-3-yl)pyrazolo[1,5-a]pyrimidin-5-yl)-3-hydroxy-8-azabicyclo[3.2.1]octan-8-yl)(4H-1,2,4-triazol-3-yl)methanone], the IC50 lay within 100 to 1000 nM in experiment [1] (Homo sapiens, PC-3, PC3 cells) and 1000 to 10000 nM in experiment [2] (Homo sapiens, PC-3, PC3 cells).
Taken in the same sequence, the figures for `Nc1c(C2CC2)c([C@H]2CC3CC[C@H](C2)N3C(=O)c2nnc[nH]2)nc2c(-c3cnc4c(c3)CCCC4O)cnn12` (stereo partly drawn) [Compound 7.54, ((1R,3s,5S)-3-(7-amino-6-cyclopropyl-3-(8-hydroxy-5,6,7,8-tetrahydroquinolin-3-yl)pyrazolo[1,5-a]pyrimidin-5-yl)-8-azabicyclo[3.2.1]octan-8-yl)(4H-1,2,4-triazol-3-yl)methanone] were 1 to 100 nM and 1 to 100 nM.
Turning to `CC(=O)c1c([C@@H]2C[C@H]3CC[C@@H](C2)N3C(N)=O)nc2c(-c3ccc(-c4ccc(F)cc4)nc3)cnn2c1N` [Compound 1.11..170, (1R,3s,5S)-3-(6-acetyl-7-amino-3-(6-(4-fluorophenyl)pyridin-3-yl)pyrazolo[1,5-a]pyrimidin-5-yl)-8-azabicyclo[3.2.1]octane-8-carboxamide], the IC50 in experiment [1] (setting [3]) and in experiment [2] (setting [3]) was 1 to 100 nM in each case.
As for `CC(=O)NCC(=O)N1[C@@H]2CC[C@H]1C[C@H](c1nc3c(-c4ccc(-c5ccccc5)nc4)cnn3c(N)c1S(C)(=O)=O)C2` [Compound 3.203, N-(2-((1R,3s,5S)-3-(7-amino-6-(methylsulfonyl)-3-(6-phenylpyridin-3-yl)pyrazolo[1,5-a]pyrimidin-5-yl)-8-azabicyclo[3.2.1]octan-8-yl)-2-oxoethyl)acetamide], the IC50 in experiment [1] (setting [4]) and in experiment [2] (setting [4]) was 1 to 100 nM throughout.
`CS(=O)(=O)c1c([C@@H]2C[C@H]3CC[C@@H](C2)N3C(=O)c2nnc[nH]2)nc2c(-c3ccc(-c4cn[nH]c4)nc3)cnn2c1N` [Compound 3.109, ((1R,3s,5S)-3-(3-(6-(1H-pyrazol-4-yl)pyridin-3-yl)-7-amino-6-(methylsulfonyl)pyrazolo[1,5-a]pyrimidin-5-yl)-8-azabicyclo[3.2.1]octan-8-yl)(4H-1,2,4-triazol-3-yl)methanone]: the IC50 in experiment [1] (setting [4]) and in experiment [2] (setting [4]) was 1000 to 10000 nM each time.
In the case of `Cc1nnc(C(=O)N2[C@@H]3CC[C@H]2C[C@H](c2nc4c(-c5ccc(-c6nc(C)c(C)s6)nc5)cnn4c(N)c2S(C)(=O)=O)C3)[nH]1` [Compound 3.197, ((1R,3s,5S)-3-(7-amino-3-(6-(4,5-dimethylthiazol-2-yl)pyridin-3-yl)-6-(methylsulfonyl)pyrazolo[1,5-a]pyrimidin-5-yl)-8-azabicyclo[3.2.1]octan-8-yl)(5-methyl-4H-1,2,4-triazol-3-yl]methanone], the IC50 in experiment [1] (setting [4]) and in experiment [2] (setting [4]) was 100 to 1000 nM in each case.
As for `COc1ccc(-c2ccc(-c3cnn4c(N)c(C(C)=O)c([C@@H]5C[C@H]6CC[C@@H](C5)N6C(=O)c5nnc[nH]5)nc34)cn2)cc1C#N` [Compound 1.1.124, 5-(5-(5-((1R,3s,5S)-8-(4H-1,2,4-triazole-3-carbonyl)-8-azabicyclo[3.2.1]octan-3-yl)-6-acetyl-7-aminopyrazolo[1,5-a]pyrimidin-3-yl)pyridin-2-yl)-2-methoxybenzonitrile], the IC50 in experiment [1] (setting [3]) and in experiment [2] (setting [3]) was 100 to 1000 nM in each case.
Regarding `CC(=O)c1c([C@@H]2C[C@H]3CC[C@@H](C2)N3C(=O)c2nnc[nH]2)nc2c(-c3ccc(-c4ncn(C)n4)nc3)cnn2c1N` [Compound 1.1.88, 1-(5-((1R,3s,5S)-8-(4H-1,2,4-triazole-3-carbonyl)-8-azabicyclo[3.2.1]octan-3-yl)-7-amino-3-(6-(1-methyl-1H-1,2,4-triazol-3-yl)pyridin-3-yl)pyrazolo[1,5-a]pyrimidin-6-yl)ethanone], the IC50 in experiment [1] (setting [3]) and in experiment [2] (setting [3]) was 1 to 100 nM in each case.
Regarding `CC(=O)c1c([C@@H]2C[C@H]3CC[C@@H](C2)N3C(=O)c2nnc(C)[nH]2)nc2c(-c3ccc(-c4ccc(F)cc4)nc3)cnn2c1N` [Compound 1.1.160, 1-(7-amino-3-(6-(4-fluorophenyl)pyridin-3-yl)-5-((1R,3s,5S)-8-(5-methyl-4H-1,2,4-triazole-3-carbonyl)-8-azabicyclo[3.2.1]octan-3-yl)pyrazolo[1,5-a]pyrimidin-6-yl)ethanone], the IC50 lay in the range of 1 to 100 nM in experiment [1] (setting [3]) and 100 to 1000 nM in experiment [2] (setting [3]).
With `Nc1c(C2CC2)c([C@@H]2C[C@H]3CC[C@@H](C2)N3C(=O)CO)nc2c(-c3ccc(C4(O)CCC4)nc3)cnn12` [Compound 7.72, 1-((1R,3s,5S)-3-(7-amino-6-cyclopropyl-3-(6-(1-hydroxycyclobutyl)pyridin-3-yl)pyrazolo[1,5-a]pyrimidin-5-yl)-8-azabicyclo[3.2.1]octan-8-yl)-2-hydroxyethanone], the IC50 in experiment [1] (Homo sapiens, PC-3, PC3 cells) was in the range of 100 to 1000 nM; in experiment [2] (Homo sapiens, PC-3, PC3 cells), 100 to 1000 nM.
`CS(=O)(=O)c1c([C@@H]2C[C@H]3CC[C@@H](C2)N3C(=O)c2nnc[nH]2)nc2c(-c3ccc(-c4ccc(OCF)cc4)nc3)cnn2c1N` [Compound 3.63, ((1R,3s,5S)-3-(7-amino-3-(6-(4-(fluoromethoxy)phenyl)pyridin-3-yl)-6-(methylsulfonyl)pyrazolo[1,5-a]pyrimidin-5-yl)-8-azabicyclo[3.2.1]octan-8-yl)(4H-1,2,4-triazol-3-yl)methanone]: the IC50 lay in the range of 1 to 100 nM in experiment [1] (Table 3-1, PC3 cells) and 1 to 100 nM in experiment [2] (Table 3-1, PC3 cells).
With `CS(=O)(=O)c1c([C@@H]2C[C@H]3CC[C@@H](C2)N3C(=O)c2nnc[nH]2)nc2c(-c3ccc(C4(N)CC4)c(F)c3)cnn2c1N` [Compound 8.44, ((1R,3s,5S)-3-(7-amino-3-(4-(1-aminocyclopropyl)-3-fluorophenyl)-6-(methylsulfonyl)pyrazolo[1,5-a]pyrimidin-5-yl)-8-azabicyclo[3.2.1]octan-8-yl)(4H-1,2,4-triazol-3-yl)methanone], the IC50 is 1000 to 10000 nM in experiment [1] (Homo sapiens, PC-3, PC3 cells) and 1000 to 10000 nM in experiment [2] (Homo sapiens, PC-3, PC3 cells).
Turning to `CS(=O)(=O)c1c([C@@H]2C[C@H]3CC[C@@H](C2)N3C(=O)C2(O)CC2)nc2c(-c3ccc(-c4ccccc4)nc3)cnn2c1N` [Compound 3.12, ((1R,3s,5S)-3-(7-amino-6-(methylsulfonyl)-3-(6-phenylpyridin-3-yl)pyrazolo[1,5-a]pyrimidin-5-yl)-8-azabicyclo[3.2.1]octan-8-yl)(1-hydroxycyclopropyl)methanone], the IC50 in experiment [1] (setting [4]) lay in the range of 100 to 1000 nM; in experiment [2] (setting [4]), 1000 to 10000 nM.
As to “((1R,3s,5S)-3-(7-amino-3-(6-(1-methyl-(D3)-1H-pyrazol-3-yl)pyridin-3-yl)-6-(methylsulfonyl)pyrazolo[1,5-a]pyrimidin-5-yl)-8-azabicyclo[3.2.1]octan-8-yl)(4H-1,2,4-triazol-3-yl)methanone [Compound 3.70]”, the IC50 was in the range of 100 to 1000 nM in experiment [1] (Table 3-1, PC3 cells) and 100 to 1000 nM in experiment [2] (Table 3-1, PC3 cells).
Take `CC(=O)c1c([C@@H]2C[C@H]3CC[C@@H](C2)N3S(C)(=O)=O)nc2c(-c3ccc(-c4ncc[nH]4)nc3)cnn2c1N` [Compound 6.10, 1-(3-(6-(1H-imidazol-2-yl)pyridin-3-yl)-7-amino-5-((1R,3s,5S)-8-(methylsulfonyl)-8-azabicyclo[3.2.1]octan-3-yl)pyrazolo[1,5-a]pyrimidin-6-yl)ethanone]: the IC50 in experiment [1] (setting [5]) and in experiment [2] (setting [5]) was 1 to 100 nM each time.
Consider `CS(=O)(=O)c1c([C@@H]2C[C@H]3CC[C@@H](C2)N3S(=O)(=O)c2nnc[nH]2)nc2c(-c3ccc(-c4ccccc4)nc3)cnn2c1N` [Compound 3.26, 5-((1R,3s,5S)-8-(4H-1,2,4-triazol-3-ylsulfonyl)-8-azabicyclo[3.2.1]octan-3-yl)-6-(methylsulfonyl)-3-(6-phenylpyridin-3-yl)pyrazolo[1,5-a]pyrimidin-7-amine], for which the IC50 in experiment [1] (setting [4]) lay in the range of 100 to 1000 nM; in experiment [2] (setting [4]) it was 1000 to 10000 nM.
For the compound `CC(=O)c1c([C@@H]2C[C@H]3CC[C@@H](C2)N3C(=O)c2nnc[nH]2)nc2c(-c3cnc(NC4CC4)nc3)cnn2c1N` [Compound 8.49, 1-(5-((1R,3s,5S)-8-(4H-1,2,4-triazole-3-carbonyl)-8-azabicyclo[3.2.1]octan-3-yl)-7-amino-3-(2-(cyclopropylamino)pyrimidin-5-yl)pyrazolo[1,5-a]pyrimidin-6-yl)ethanone], the IC50 in experiment [1] (PC3 cells) and in experiment [2] (PC3 cells) was 1 to 100 nM in each case.
On to `CS(=O)(=O)c1c([C@@H]2C[C@H]3CC[C@@H](C2)N3C(=O)c2nnc[nH]2)nc2c(-c3ccc(-n4cccn4)nc3)cnn2c1N` [Compound 3.150, ((1R,3s,5S)-3-(3-(6-(1H-pyrazol-1-yl)pyridin-3-yl)-7-amino-6-(methylsulfonyl)pyrazolo[1,5-a]pyrimidin-5-yl)-8-azabicyclo[3.2.1]octan-8-yl)(4H-1,2,4-triazol-3-yl)methanone], for which the IC50 in experiment [1] (setting [4]) and in experiment [2] (setting [4]) was 1 to 100 nM each time.
